A short description of series [1]: Human cadaver skin permeation evaluation (static Franz cells). In kind it is in vitro ADME. As to the method:
Dermatomed full thickness human cadaver skin samples, 250–350 μm, were mounted onto static Franz cells. […] Phosphate buffered saline, pH 7.4 was used as the receptor medium. CGB400 gel was applied to the SC side of the skin samples at a dose of ~15 μl/cm^2 (~15 mg/cm^2). The cells were kept in a chamber at 37°C for a period of 24 h. Stirrers in the receptor chamber ensured that the receptor media was well mixed during this time. The receptor media was sampled at 4, 7, and 24 h to quantify the amount of choline and geranic acid permeation. After 24 h, the skin surface was washed before removing the SC by tape stripping. The SC was stripped from the epidermis using an adhesive tape up to 10 layers (SC1, SC2‐5, SC6‐10). Following SC removal, the epidermis was separated from the dermis using a surgical sterile scalpel and the dermis was cut into pieces. Each layer was collected separately in glass vials containing 2 ml of 50:50 water:methanol mixture and was left to shake overnight to extract the choline and geranic acid. The amount of choline and geranic acid was measured using LC–MS/MS in the wash, epidermis, dermis, and the receptor medium.

The conditions of series [2]: octanol-water partition coefficient; no reference given; cited from earlier work.

Consider Choline geranate [CAGE1:2], for which, in series [1], the “applied CAGE1:2 dose penetrated into the dermis” value is listed as “About 9.5%” and the “molar ratio of choline to geranic acid in the epidermis” value was found to be 1.18.

By LogP is commonly meant the decadic logarithm of the partition coefficient of the neutral form, usually between octanol and water. Regarding `CC(C)=CCC/C(C)=C/C(=O)O` [geranic acid], the LogP in series [2] was 2.8.

Consider `C[N+](C)(C)CCO` [choline], for which the LogP in series [2] is recorded as −3.7.
